The text below walks through data of patent US10611760B2, “Therapeutic compounds as inhibitors of the orexin-1 receptor” (C4X Discovery Limited, priority 2014, dated 2020).

Bounds are passed on as bounds.

In one experiment the target is T1, hOX1R (Homo sapiens, UniProt O43613).
T1 sequence (O43613 1-425): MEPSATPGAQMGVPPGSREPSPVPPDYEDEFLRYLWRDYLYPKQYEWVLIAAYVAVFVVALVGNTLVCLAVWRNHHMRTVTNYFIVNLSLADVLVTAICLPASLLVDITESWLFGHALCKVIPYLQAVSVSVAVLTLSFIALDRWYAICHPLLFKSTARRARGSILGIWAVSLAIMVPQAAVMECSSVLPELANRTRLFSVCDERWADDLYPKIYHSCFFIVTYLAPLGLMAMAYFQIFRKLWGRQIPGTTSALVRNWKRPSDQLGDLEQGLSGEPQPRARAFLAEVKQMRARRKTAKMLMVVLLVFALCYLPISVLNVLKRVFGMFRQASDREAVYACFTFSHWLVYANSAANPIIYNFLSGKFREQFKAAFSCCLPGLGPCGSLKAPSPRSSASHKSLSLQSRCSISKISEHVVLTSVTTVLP
Briefly: Intracellular calcium measurements using division-arrested cells, OX1. The format is cell-based. The conditions noted are these: agonist orexin A at 2×EC50, * = single experiment, otherwise average of at least two, read-out: pIC50 OX1 (converted). As for the experimental part: (§1) Intracellular Calcium Measurements Using Division-arrested Cells (Table 1):
(§2) Test compounds are prepared as 10 mM stock solutions in DMSO, then serially diluted in half log concentrations with DMSO followed by dilution with assay buffer (HBSS (Sigma-Aldrich, H8264) containing 20 mM HEPES (Sigma-Aldrich, H4034), 0.1% (w/v) bovine serum albumin and adjusted to pH 7.4) to a top final assay concentration of 10 μM.
(§3) Human OX1 (CT-A474) and human OX2 (CT-A475) receptor-expressing division-arrested cells are plated into 384 well black, clear bottom, cell-bind plates at a seeding density of 10,000 cells/50 μL growth media. The seeded plates are incubated at 37° C. in air supplemented with 5% CO2 for 16 hrs.
(§4) The media is removed and replaced with 30 μL/well of cell loading buffer (a vial of Calcium 5 is solubilized in 22 mL of assay buffer to which a freshly prepared 250 mM solution of probenecid in 1:1 1M NaOH to assay buffer (200 μL) is added) and the cells incubated for 1 hr at 37° C. The serially diluted test compounds (10 μL/well) are added to the plate, which is then incubated for 10 mins and placed in a FlexStation III reader.
Background: Calcium assays in cells follow changes in intracellular calcium, usually with a dye or a luminescent sensor.

In a further experiment the target is T2, hOX2R (Homo sapiens, UniProt O43614).
T2 sequence (O43614 1-444): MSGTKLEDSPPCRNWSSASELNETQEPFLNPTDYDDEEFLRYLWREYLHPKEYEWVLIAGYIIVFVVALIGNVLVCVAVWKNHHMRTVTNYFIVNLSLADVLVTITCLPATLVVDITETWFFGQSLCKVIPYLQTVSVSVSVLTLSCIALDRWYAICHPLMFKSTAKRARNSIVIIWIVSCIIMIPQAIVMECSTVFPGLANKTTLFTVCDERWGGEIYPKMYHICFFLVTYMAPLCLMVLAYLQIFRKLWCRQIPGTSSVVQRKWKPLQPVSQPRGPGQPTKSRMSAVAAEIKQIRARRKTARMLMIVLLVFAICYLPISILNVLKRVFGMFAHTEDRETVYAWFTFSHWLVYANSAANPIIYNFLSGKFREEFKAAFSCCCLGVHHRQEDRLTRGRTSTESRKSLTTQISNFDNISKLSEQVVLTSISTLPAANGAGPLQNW
Briefly: Intracellular calcium measurements using division-arrested cells, OX2. The format is cell-based. Conditions: agonist orexin B at 2×EC50, * = single experiment, otherwise average of at least two, read-out: pIC50 OX2 (converted). As for the experimental part: as §1, §2, §3, §4

Regarding `CC[C@@H](CNc1ccc(Cl)cn1)NC(=O)c1cc(C)ccc1-n1nccn1` [Example 2, (S)—N-(1-((5-chloropyridin-2-yl)amino)butan-2-yl)-5-methyl-2-(2H-1,2,3-triazol-2-yl)benzamide], the IC50 was 39.8 nM on hOX1R and 2000 nM at hOX2R. For `CC[C@@H](CNc1ccc(Cl)cn1)N(C)C(=O)c1ccccc1-c1ccccc1` [Example 3, (S)—N-(1-((5-chloropyridin-2-yl)amino)butan-2-yl)-N-methyl-[1,1′-biphenyl]-2-carboxamide], in that order: 20 nM and 1000 nM. Regarding `CC(C)[C@@H](CNc1ccc(Cl)cn1)NC(=O)c1ccccc1-c1ccccc1` [Example 4, (S)—N-(1-((5-chloropyridin-2-yl)amino)-3-methylbutan-2-yl)-[1,1′-biphenyl]-2-carboxamide], the IC50 on hOX1R was 158 nM; at hOX2R, greater than 10000 nM. Consider `CC(C)C[C@@H](CNc1ccc(Cl)cn1)NC(=O)c1ccccc1-c1ccccc1` [Example 5, (S)—N-(1-((5-chloropyridin-2-yl)amino)-4-methylpentan-2-yl)-[1,1′-biphenyl]-2-carboxamide], for which the IC50 at hOX1R is 1000 nM; on hOX2R, greater than 10000 nM. Regarding `Cc1nc(-c2ccccc2)c(C(=O)N[C@H](CNc2ccc(Cl)cn2)CC(C)C)s1` [Example 7, (S)—N-(1-((5-chloropyridin-2-yl)amino)-4-methylpentan-2-yl)-2-methyl-4-phenylthiazole-5-carboxamide], the IC50 on hOX1R was 1580 nM.

For `CC(C)C[C@@H](CNc1ccc(Cl)cn1)N(C)C(=O)c1ccccc1-c1ccccc1` [Example 8, (S)—N-(1-((5-chloropyridin-2-yl)amino)-4-methylpentan-2-yl)-N-methyl-[1,1′-biphenyl]-2-carboxamide], the IC50 is 794 nM on hOX1R and greater than 10000 nM on hOX2R. As to `Cc1nc(-c2ccccc2)c(C(=O)N(C)[C@H](CNc2ccc(Cl)cn2)C(C)C)s1` [Example 11, (S)—N-(1-((5-chloropyridin-2-yl)amino)-3-methylbutan-2-yl)-N,2-dimethyl-4-phenylthiazole-5-carboxamide], the IC50 on hOX1R is 79.4 nM; at hOX2R, greater than 7940 nM. Turning to `CN(C(=O)c1ccccc1-c1ccccc1)[C@H](CNc1ccc(Cl)cn1)C(C)(C)C` [Example 12, (S)—N-(1-((5-chloropyridin-2-yl)amino)-3,3-dimethylbutan-2-yl)-N-methyl-[1,1′-biphenyl]-2-carboxamide], the results for the IC50 on hOX1R and on hOX2R were 1000 nM and greater than 10000 nM, respectively. For `CN(C(=O)c1ccccc1-c1ccccc1)[C@H](CNc1ccc(Cl)cn1)C1CC1` [Example 13, (S)—N-(2-((5-chloropyridin-2-yl)amino)-1-cyclopropylethyl)-N-methyl-[1,1′-biphenyl]-2-carboxamide], the IC50 on hOX1R was 39.8 nM; at hOX2R, 2510 nM.

Regarding `CC(C)[C@@H](CNc1ccc(Cl)cn1)N(C(=O)c1ccccc1-c1ccccc1)C1CC1` [Example 15, (S)—N-(1-((5-chloropyridin-2-yl)amino)-3-methylbutan-2-yl)-N-cyclopropyl-[1,1′-biphenyl]-2-carboxamide], on hOX2R, the IC50 is greater than 10000 nM. For the molecule `CC[C@@H](CNc1ccc(Cl)cn1)N(C)C(=O)c1cc(Cl)ccc1-n1nccn1` [Example 16, (S)-5-chloro-N-(1-((5-chloropyridin-2-yl)amino)butan-2-yl)-N-methyl-2-(2H-1,2,3-triazol-2-yl)benzamide], the IC50 is 12.6 nM at hOX1R and 1260 nM on hOX2R. Take `CC[C@@H](CNc1ccc(Cl)cn1)N(C)C(=O)c1cc(C(F)(F)F)ccc1-n1nccn1` [Example 17, (S)—N-(1-((5-chloropyridin-2-yl)amino)butan-2-yl)-N-methyl-2-(2H-1,2,3-triazol-2-yl)-5-(trifluoromethyl)benzamide]: the IC50 at hOX1R was 200 nM. On to `CC[C@@H](CNc1ccc(Cl)cn1)N(C)C(=O)c1nc(C)ccc1-n1nccn1` [Example 21, (S)—N-(1-((5-chloropyridin-2-yl)amino)butan-2-yl)-N,6-dimethyl-3-(2H-1,2,3-triazol-2-yl)picolinamide], for which the IC50 on hOX1R was 7.94 nM. In the case of `CC[C@@H](CNc1ccc(Cl)cn1)N(C)C(=O)c1cc(C)ccc1N1CCOCC1` [Example 22, (S)—N-(1-((5-chloropyridin-2-yl)amino)butan-2-yl)-N,5-dimethyl-2-morpholinobenzamide], at hOX2R, the IC50 was greater than 10000 nM. In the case of `CC(C)[C@@H](COCc1ccc(F)cc1)N(C)C(=O)c1ccccc1-c1ccccc1` [Example 29, (S)—N-(1-((4-fluorobenzyl)oxy)-3-methylbutan-2-yl)-N-methyl-[1,1′-biphenyl]-2-carboxamide], the IC50 on hOX1R was 1580 nM. For the molecule `CC(C)[C@@H](COc1ncc2ccccc2n1)N(C)C(=O)c1ccccc1-c1ccccc1` [Example 31, (S)—N-methyl-N-(3-methyl-1-(quinazolin-2-yloxy)butan-2-yl)-[1,1′-biphenyl]-2-carboxamide], the IC50 at hOX1R is 200 nM. On to `CC(C)[C@@H](COc1nccc(-c2ccccc2)n1)N(C)C(=O)c1ccccc1-c1ccccc1` [Example 32, (S)—N-methyl-N-(3-methyl-1-((4-phenylpyrimidin-2-yl)oxy)butan-2-yl)-[1,1′-biphenyl]-2-carboxamide], for which the IC50 on hOX1R is 200 nM. Still for that read-out and setting: under `CC(C)[C@@H](COc1nc2ccccc2n1C)N(C)C(=O)c1ccccc1-c1ccccc1` [Example 33, (S)—N-methyl-N-(3-methyl-1-((1-methyl-1H-benzo[d]imidazol-2-yl)oxy)butan-2-yl)-[1,1′-biphenyl]-2-carboxamide] stands 100 nM. Turning to `CC(C)[C@@H](CNc1ncc2ccccc2n1)N(C)C(=O)c1ccccc1-c1ccccc1` [Example 36, (S)—N-methyl-N-(3-methyl-1-(quinazolin-2-ylamino)butan-2-yl)-[1,1′-biphenyl]-2-carboxamide], on hOX1R, the IC50 was 63.1 nM.

For the molecule `Cc1cc(C)nc(NC[C@H](C(C)C)N(C)C(=O)c2ccccc2-c2ccccc2)n1` [Example 37, (S)—N-(1-((4,6-dimethylpyrimidin-2-yl)amino)-3-methylbutan-2-yl)-N-methyl-[1,1′-biphenyl]-2-carboxamide], the IC50 on hOX1R was 79.4 nM.

Take `CC[C@@H](CNc1ccc(C(F)(F)F)cn1)N(C)C(=O)c1cc(Cl)ccc1-n1nccn1` [Example 42, (S)-5-chloro-N-methyl-2-(2H-1,2,3-triazol-2-yl)-N-(1-((5-(trifluoromethyl)pyridin-2-yl)amino)butan-2-yl)benzamide]: the IC50 at hOX2R is 1000 nM. Take `CC(C)[C@@H](CNc1ccc(Cl)cn1)N(C)C(=O)c1cn(C)c2ccccc12` [Example 50, (S)—N-(1-((5-chloropyridin-2-yl)amino)-3-methylbutan-2-yl)-N,1-dimethyl-1H-indole-3-carboxamide]: the IC50 on hOX1R was 631 nM.

On to `CC[C@@H](CNc1cccc(C)n1)N(C)C(=O)c1cc(Cl)ccc1-n1nccn1` [Example 53, (S)-5-chloro-N-methyl-N-(1-((6-methylpyridin-2-yl)amino)butan-2-yl)-2-(2H-1,2,3-triazol-2-yl)benzamide], for which the IC50 at hOX1R was 251 nM. Still for that read-out and setting: the figure for `CC[C@@H](CNc1ccc(C(F)(F)F)nc1)N(C)C(=O)c1nc(C)ccc1-n1nccn1` [Example 55, (S)—N,6-dimethyl-3-(2H-1,2,3-triazol-2-yl)-N-(1-((6-(trifluoromethyl)pyridin-3-yl)amino)butan-2-yl)picolinamide] is 79.4 nM.
